In patent publication US10799605B2 (3B PHARMACEUTICALS GMBH, priority 2014, dated 2020):
Where two headings read alike, the source gives them in different places.

Key:
NTR1 [1] = target: T1, NTR1 (Homo sapiens (Human), UniProt P30989); test: Functional Ca2+ mobilisation assay (example part II); format: cell-based; conditions: antagonist assay
In short: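 HT29 or NTR1-expressing HEK293 cells loaded with Ca5 dye for 1 h at 37 °C in buffer at pH 7.4, and fluorescence recorded for about 90 s after addition. EC50 derived from agonist serial dilutions; IC50 from antagonists pre-incubated 30 min before an EC80 agonist challenge.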

NTR1 [2] = target: T1, NTR1; test: Radioligand binding assay NTR1 (example part II); conditions: 0.05 nM 125I-(Tyr3-neurotensin), 60 min at 4° C.; read-out: IC50 [nM] RLB
In short: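 Membranes from CHO cells recombinantly expressing human NTR1 incubated with 0.05 nM 125I-(Tyr3-neurotensin) and serially diluted test compounds. Bound radioligand quantified by scintillation counting; displacement expressed as IC50.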

A2A (h) = A2A (h) (Homo sapiens (Human), UniProt P29274); test: ExpresSProfile: adenosine receptor 2A, agonist radioligand; format: binding; conditions: Test Concentration 1.0E−05 M
Chain of A2A (h) (P29274 whole entry): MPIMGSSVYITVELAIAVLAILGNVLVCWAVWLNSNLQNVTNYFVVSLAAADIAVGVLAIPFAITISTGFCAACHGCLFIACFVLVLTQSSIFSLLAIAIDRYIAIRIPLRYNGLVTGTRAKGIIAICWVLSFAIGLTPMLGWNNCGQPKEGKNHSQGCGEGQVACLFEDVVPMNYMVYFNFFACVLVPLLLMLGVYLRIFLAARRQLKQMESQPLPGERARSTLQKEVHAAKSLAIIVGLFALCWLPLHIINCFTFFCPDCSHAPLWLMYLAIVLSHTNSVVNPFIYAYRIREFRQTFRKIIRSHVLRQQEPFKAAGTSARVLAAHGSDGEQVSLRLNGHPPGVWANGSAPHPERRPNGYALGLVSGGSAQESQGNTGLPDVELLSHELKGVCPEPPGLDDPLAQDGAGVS

alpha 1 (non-selective) = test: ExpresSProfile: alpha1 adrenergic receptor, antagonist radioligand; format: binding; conditions: Test Concentration 1.0E−05 M
beta 1 (h) = beta 1 (h) (Homo sapiens (Human), UniProt P08588); test: ExpresSProfile: beta1 adrenergic receptor, agonist radioligand; format: binding; conditions: Test Concentration 1.0E−05 M
Chain of beta 1 (h) (P08588 whole entry): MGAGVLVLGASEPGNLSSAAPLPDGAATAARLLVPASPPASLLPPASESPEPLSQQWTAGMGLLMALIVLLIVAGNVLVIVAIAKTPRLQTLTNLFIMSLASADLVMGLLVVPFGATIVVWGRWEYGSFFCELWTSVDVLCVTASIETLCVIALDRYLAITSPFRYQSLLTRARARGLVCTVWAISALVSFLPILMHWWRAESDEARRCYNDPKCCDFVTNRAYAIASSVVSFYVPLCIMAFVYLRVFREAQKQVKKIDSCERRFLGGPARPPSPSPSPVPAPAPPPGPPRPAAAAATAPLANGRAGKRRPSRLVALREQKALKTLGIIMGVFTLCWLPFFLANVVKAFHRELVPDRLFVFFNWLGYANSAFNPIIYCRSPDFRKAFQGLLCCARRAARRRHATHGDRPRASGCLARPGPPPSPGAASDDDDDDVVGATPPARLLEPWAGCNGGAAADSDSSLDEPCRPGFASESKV

BZD (central) = test: ExpresSProfile: benzodiazepine, agonist radioligand; format: binding; conditions: Test Concentration 1.0E−05 M
D1 (h) = D1 (h) (Homo sapiens (Human), UniProt P21728); test: ExpresSProfile: dopamine receptor 1, antagonist radioligand; format: binding; conditions: Test Concentration 1.0E−05 M
Chain of D1 (h) (P21728 whole entry): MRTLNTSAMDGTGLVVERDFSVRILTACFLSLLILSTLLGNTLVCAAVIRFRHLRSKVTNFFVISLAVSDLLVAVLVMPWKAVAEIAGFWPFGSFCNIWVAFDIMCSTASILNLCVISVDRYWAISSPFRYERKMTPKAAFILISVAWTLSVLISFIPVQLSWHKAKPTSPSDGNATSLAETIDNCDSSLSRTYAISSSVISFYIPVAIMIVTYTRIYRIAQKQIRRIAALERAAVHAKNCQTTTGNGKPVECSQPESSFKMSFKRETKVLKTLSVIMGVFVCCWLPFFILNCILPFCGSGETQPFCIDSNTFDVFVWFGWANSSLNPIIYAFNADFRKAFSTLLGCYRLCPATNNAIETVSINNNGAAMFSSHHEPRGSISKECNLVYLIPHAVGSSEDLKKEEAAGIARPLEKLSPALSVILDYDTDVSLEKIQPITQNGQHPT

M2 (h) = M2 (h) (Homo sapiens (Human), UniProt P08172); test: ExpresSProfile: muscarinic receptor 2, antagonist radioligand; format: binding; conditions: Test Concentration 1.0E−05 M
Chain of M2 (h) (P08172 whole entry): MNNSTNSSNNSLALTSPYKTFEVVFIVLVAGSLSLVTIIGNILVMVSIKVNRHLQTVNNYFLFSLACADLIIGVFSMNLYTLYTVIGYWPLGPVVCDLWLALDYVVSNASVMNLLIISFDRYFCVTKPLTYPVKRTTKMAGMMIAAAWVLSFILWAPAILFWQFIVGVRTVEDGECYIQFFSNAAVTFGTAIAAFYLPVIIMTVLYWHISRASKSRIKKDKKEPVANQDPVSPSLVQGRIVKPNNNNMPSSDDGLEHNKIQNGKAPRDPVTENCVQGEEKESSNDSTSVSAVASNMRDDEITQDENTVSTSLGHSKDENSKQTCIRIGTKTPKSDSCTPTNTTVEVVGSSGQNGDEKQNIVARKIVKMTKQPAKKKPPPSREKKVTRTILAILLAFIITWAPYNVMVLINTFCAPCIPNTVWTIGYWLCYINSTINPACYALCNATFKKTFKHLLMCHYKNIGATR

NK2 (h) = NK2 (h) (Homo sapiens (Human), UniProt P21452); test: ExpresSProfile: neurokinin receptor 2, agonist radioligand; format: binding; conditions: Test Concentration 1.0E−05 M
Chain of NK2 (h) (P21452 whole entry): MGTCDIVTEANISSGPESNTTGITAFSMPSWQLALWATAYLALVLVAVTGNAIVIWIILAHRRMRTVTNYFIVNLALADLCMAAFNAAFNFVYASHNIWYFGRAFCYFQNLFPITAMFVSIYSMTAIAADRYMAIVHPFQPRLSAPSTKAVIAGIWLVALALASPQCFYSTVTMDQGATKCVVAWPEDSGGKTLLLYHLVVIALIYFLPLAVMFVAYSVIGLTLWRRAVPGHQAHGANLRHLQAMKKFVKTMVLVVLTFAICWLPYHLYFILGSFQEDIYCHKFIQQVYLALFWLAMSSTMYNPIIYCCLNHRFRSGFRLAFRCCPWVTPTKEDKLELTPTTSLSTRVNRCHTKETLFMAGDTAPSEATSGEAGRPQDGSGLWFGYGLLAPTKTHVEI

NK3 (h) = NK3 (h) (Homo sapiens (Human), UniProt P29371); test: ExpresSProfile: neurokinin receptor 3, antagonist radioligand; format: binding; conditions: Test Concentration 1.0E−05 M
Chain of NK3 (h) (P29371 whole entry): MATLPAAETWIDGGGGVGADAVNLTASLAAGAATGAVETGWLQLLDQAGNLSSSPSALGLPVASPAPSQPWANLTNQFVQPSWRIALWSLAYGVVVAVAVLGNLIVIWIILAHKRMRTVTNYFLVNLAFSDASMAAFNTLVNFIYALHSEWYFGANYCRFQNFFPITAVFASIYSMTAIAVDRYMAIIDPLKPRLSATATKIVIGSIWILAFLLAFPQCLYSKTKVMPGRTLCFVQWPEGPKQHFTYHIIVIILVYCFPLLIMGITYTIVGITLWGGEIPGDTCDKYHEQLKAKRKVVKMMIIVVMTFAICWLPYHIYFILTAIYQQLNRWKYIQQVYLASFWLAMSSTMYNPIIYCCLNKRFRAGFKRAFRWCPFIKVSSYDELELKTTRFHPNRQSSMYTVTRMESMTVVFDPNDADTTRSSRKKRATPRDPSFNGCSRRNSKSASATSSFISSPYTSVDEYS

delta 2 (DOP) (h) = delta 2 (DOP) (h) (Homo sapiens (Human), UniProt P41143); test: ExpresSProfile: delta2 opioid receptor, agonist radioligand; format: binding; conditions: Test Concentration 1.0E−05 M
Chain of delta 2 (DOP) (h) (P41143 whole entry): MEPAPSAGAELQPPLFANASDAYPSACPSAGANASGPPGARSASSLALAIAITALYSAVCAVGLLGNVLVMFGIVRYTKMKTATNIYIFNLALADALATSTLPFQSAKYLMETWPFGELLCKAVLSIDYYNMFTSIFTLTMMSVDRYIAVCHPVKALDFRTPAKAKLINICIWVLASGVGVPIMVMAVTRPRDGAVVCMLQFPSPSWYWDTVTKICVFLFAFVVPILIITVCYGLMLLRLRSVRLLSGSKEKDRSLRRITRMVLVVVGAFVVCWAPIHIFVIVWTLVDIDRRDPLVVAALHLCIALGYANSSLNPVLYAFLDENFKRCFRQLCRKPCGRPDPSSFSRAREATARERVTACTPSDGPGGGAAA

5-HT1B = 5-HT1B (Rattus norvegicus, UniProt P28564); test: ExpresSProfile: 5-hydroxytryptamine receptor 1B, antagonist radioligand; format: binding; conditions: Test Concentration 1.0E−05 M
[3] = read-out: % Inhibition of Control Specific Binding
[4] = read-out: % of Control Specific Binding 1st
[5] = read-out: % of Control Specific Binding 2nd
[6] = read-out: % of Control Specific Binding Mean

T1 sequence (P30989 whole entry): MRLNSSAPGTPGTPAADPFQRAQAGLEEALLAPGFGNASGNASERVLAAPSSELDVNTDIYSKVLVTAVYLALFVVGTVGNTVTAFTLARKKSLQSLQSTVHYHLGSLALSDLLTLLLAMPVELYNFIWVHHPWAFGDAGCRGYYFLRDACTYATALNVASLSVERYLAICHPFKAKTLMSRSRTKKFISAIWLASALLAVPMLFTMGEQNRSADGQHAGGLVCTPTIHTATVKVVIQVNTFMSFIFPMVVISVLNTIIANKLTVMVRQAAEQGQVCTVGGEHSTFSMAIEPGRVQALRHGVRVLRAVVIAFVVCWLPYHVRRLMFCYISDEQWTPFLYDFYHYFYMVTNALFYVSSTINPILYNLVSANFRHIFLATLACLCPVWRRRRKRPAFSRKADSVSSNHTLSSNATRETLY

COc1cccc(OC)c1-c1cc(C(=O)NC2(C(=O)O)C3CC4CC(C3)CC2C4)nn1-c1ccc(C(=O)N(C)CCCN(C)CCCN(C)C(=O)CN2CCN(CC(=O)O)CCN(CC(=O)O)CCN(CC(=O)O)CC2)cc1C(C)C (stereo not shown) [(IIIa), 2-{[1-{4-[(3-{[3-(DOTA-methyl-amino)-propyl]-methyl-amino}-propyl)-methyl-carbamoyl]-2-isopropyl-phenyl}-5-(2,6-dimethoxy-phenyl)-1H-pyrazole-3-carbonyl]-amino}-adamantane-2-carboxylic acid]
IC50 (NTR1 [1]): 20 nM | IC50 (NTR1 [2]): 2.9 nM | % Inhibition of Control Specific Binding (A2A (h)): 5% | % of Control Specific Binding 1st (A2A (h)): 104.2% | % of Control Specific Binding 2nd (A2A (h)): 85.6% | % of Control Specific Binding Mean (A2A (h)): 94.9% | % Inhibition of Control Specific Binding (alpha 1 (non-selective)): −9% | % of Control Specific Binding 1st (alpha 1 (non-selective)): 106.2% | % of Control Specific Binding 2nd (alpha 1 (non-selective)): 111.1% | % of Control Specific Binding Mean (alpha 1 (non-selective)): 108.7% | inhibition at 10 µM (beta 1 (h); [3]): 2% | remaining activity at 10 µM (beta 1 (h); [4]): 89.9% | remaining activity at 10 µM (beta 1 (h); [5]): 106% | remaining activity at 10 µM (beta 1 (h); [6]): 98% | % Inhibition of Control Specific Binding (BZD (central)): −16% | % of Control Specific Binding 1st (BZD (central)): 109.4% | % of Control Specific Binding 2nd (BZD (central)): 122.6% | % of Control Specific Binding Mean (BZD (central)): 116.0% | inhibition at 10 µM (D1 (h); [3]): -5% | remaining activity at 10 µM (D1 (h); [4]): 114% | remaining activity at 10 µM (D1 (h); [5]): 96.3% | remaining activity at 10 µM (D1 (h); [6]): 105% | inhibition at 10 µM (M2 (h); [3]): -17% | remaining activity at 10 µM (M2 (h); [4]): 124% | remaining activity at 10 µM (M2 (h); [5]): 111% | remaining activity at 10 µM (M2 (h); [6]): 117% | % Inhibition of Control Specific Binding (NK2 (h)): 66% | inhibition at 10 µM (NK2 (h); [3]): 66% | remaining activity at 10 µM (NK2 (h); [4]): 34.5% | remaining activity at 10 µM (NK2 (h); [5]): 33.7% | remaining activity at 10 µM (NK2 (h); [6]): 34.1% | inhibition at 10 µM (NK3 (h); [3]): -1% | remaining activity at 10 µM (NK3 (h); [4]): 102% | remaining activity at 10 µM (NK3 (h); [5]): 98.5% | remaining activity at 10 µM (NK3 (h); [6]): 100% | inhibition at 10 µM (delta 2 (DOP) (h); [3]): -6% | remaining activity at 10 µM (delta 2 (DOP) (h); [4]): 107% | remaining activity at 10 µM (delta 2 (DOP) (h); [5]): 105% | remaining activity at 10 µM (delta 2 (DOP) (h); [6]): 106% | inhibition at 10 µM (5-HT1B; [3]): -7% | remaining activity at 10 µM (5-HT1B; [4]): 107% | remaining activity at 10 µM (5-HT1B; [5]): 106% | remaining activity at 10 µM (5-HT1B; [6]): 107%
